Results as given in patent US11059795B2, “Androgen receptor modulators and methods for their use” (ESSA Pharma, Inc., priority 2018, dated 2021).

Columns and labels:
[1] = In vivo pharmacokinetics in plasma after oral gavage (PO) in male CD-1 mice; settings: for bioavailability / AUC(0-t) / Cmax / Tmax / half-life: mouse; for half-life: read-out: t½ (converted); for Cmin at 5 mg/kg PO: Table 4
Experimental: The purpose of this study is to determine the pharmacokinetics of the tested compounds in plasma, following oral gavage administration (PO) to male CD-1 mice.
Animal Husbandry: Animals were group housed during acclimation and the study. The animal room environment were controlled (target conditions: temperature 18 to 26° C., relative humidity 30 to 70%, 12 hours artificial light and 12 hours dark). Temperature and relative humidity were monitored daily. Animals were fasted at least 12 hours prior to the administration. All animals had access to Certified Rodent Diet ad libitum 4 hours post dosing.
Dose Formulation: prepared 85-100 uL of a stock solution of representative compounds of the disclosure in DMSO at 50 mM; 1.5% v/v of Tween 80 were added and mixed gently; 95.5% v/v saline was added gently to the organic phase. The solution was mixed slowly by reverse pipetting to get a clear solution.
Dose Administration: the dose formulations were administered via oral gavage per facility SOPs. The dose volume were determined by the animals' body weight collected on the morning of dosing day
Sample Collection: blood collection (about 0.05 mL per time point) was performed from saphenous vein of each animal into polypropylene tubes at each timepoints (0, 0.25, 0.5, 1, 2, 4, 8, 12, and 24 hr). All blood samples were transferred into pre-chilled tubes containing 2 μL of K2-EDTA (0.5M) and placed on wet ice until centrifugation. Each collected blood sample was in the wet-ice before centrifugation. Each collected blood was under centrifugation for 15 minutes at 4° C. and 3000 g for plasma collection. Plasma samples were stored in polypropylene tubes, quickly frozen over dry ice and kept at −70±10° C. until LC/MS/MS analysis.
Bioanalytical analysis: A LC-MS/MS method for the quantitative determination of tested compound in biological matrix were developed under non-GLP compliance. A calibration curve with at least 7 non-zero calibration standards were applied for the method including LLOQ.
Plasma concentration versus time data were analyzed by non-compartmental approaches using the Phoenix WinNonlin 6.3 software program. Cl, Vdss, C0, Cmax, Tmax, T^1/2, AUC(0-t), AUC(0-inf), MRT(0-t), MRT(0-inf), % F (oral availability) and graphs of plasma concentration versus time profile were reported.

[2] = system: LNCaP cells; experiment: Cell proliferation/viability assay, LNCaP (Alamar blue); format: cell-based; settings: Homo sapiens, AR specific proliferation with 0.1 nM R1881, read-out: Cellular Proliferation/Viability IC50 (μM) LNCaP
Experimental: (§1) Cell proliferation/viability was measured in LNCaP and PC3 cells with Alamar blue, and proliferation was measured in LN-CaP95 cells with BrdU incorporation. In LNCaP cells, AR specific proliferation is calculated by measuring the difference between control cells treated with or without 0.1 nM R1881.

[3] = system: PC3 cells; experiment: Cell proliferation/viability assay, PC3 (Alamar blue); format: cell-based; settings: Homo sapiens; PC-3, Alamar blue; read-out: Cellular Proliferation/Viability IC50 (μM) PC-3
Experimental: as §1

[4] = system: LNCaP tumors; experiment: LNCaP xenografts model in castrated male NCG mice; format: in vivo; settings: Table 4; extrapolated Cmin in efficacy
Experimental: Tumor growth was measured in male NCG mice bearing LNCaP tumors. Castration was performed when tumors reached ˜100 mm^3 and dosing (60 mg/kg PO qd) started 1 week after castration. […] Individual tumor volume change from baseline measured at the end of the experiment.

[5] = system: LN-CaP95 cells; experiment: Cell proliferation assay, LNCaP95 (BrdU incorporation); format: cell-based; settings: LNCaP-95, read-out: Cellular Proliferation/Viability IC50 (μM) LNCaP95
Experimental: as §1

[6] = plasma, single PO dose 5 mg/kg, male CD-1 mice, oral availability
[7] = single PO dose 5 mg/kg, male CD-1 mice, plasma

SMILES | bioavailability [1, 6] [%] | AUC(0-t) [1, 7] [ng·h/mL] | Cmax [1, 7] [ng/mL] | Tmax [1, 7] [h] | half-life [1, 7] [h] | AUC/D [1, 7] [kg·ng·h/mL/mg] | IC50 [2] [µM] | IC50 [3] [µM] | Cmin at 5 mg/kg PO [1] [nM] | Cmin at 5 mg/kg PO [4] [nM] | IC50 [5] [µM] | t½ [1, 7] [h] | F (%) ([1]; single PO dose 5 mg/kg, male CD-1 mice, oral availability)
CCS(=O)(=O)Nc1nccc(COc2ccc(C(C)(C)c3cc(Cl)c(OCCCl)c(C#N)c3)cc2)n1 [Compound A131] | 81 | 76000 | 7050 | 1.3 | 5 | 15209.4 |  |  |  |  |  |  | 
C[C@H](Oc1ccc(C(C)(C)c2cc(Cl)c(OCCCl)c(C#N)c2)cc1)c1ccnc(NS(C)(=O)=O)n1 (single isomer, unassigned) [Compound A170] | 150 | 80000 | 8500 | 3 | 3 | 16007.6 |  |  |  |  |  |  | 
CC(C)(c1ccc(OCc2ncc(S(C)(=O)=O)s2)cc1)c1cc(Cl)c(OCCCl)c(C#N)c1 [Compound A93, 3-chloro-2-(2-chloroethoxy)-5-(2-(4-((5-(methylsulfonyl)thiazol-2-yl)methoxy)phenyl)propan-2-yl)benzonitrile] | 62.8 | 32900 | 2970 | 0.8 | 17.1 | 6575.7 |  |  |  |  |  |  | 
Cc1cnc(NS(C)(=O)=O)nc1COc1ccc(C(C)(C)c2cc(Cl)c(OCCCl)c(C#N)c2)cc1 [Compound A122, N-(4-((4-(2-(3-Chloro-4-(2-chloroethoxy)-5-cyanophenyl)propan-2-yl)phenoxy)methyl)-5-methylpyrimidin-2-yl)methanesulfonamide] | 92.4 | 6800 | 4080 | 0.5 | 1.1 | 1360.0 |  |  |  |  |  |  | 
CC(C)(c1ccc(OCc2nc(S(C)(=O)=O)cs2)cc1)c1cc(Cl)c(OCCCl)c(C#N)c1 [Compound A136, 3-Chloro-2-(2-chloroethoxy)-5-(2-(4-((4-(methylsulfonyl)thiazol-2-yl)methoxy)phenyl)propan-2-yl)benzonitrile] | 14 | 42000 | 3430 | 1.5 | 10.2 | 8407.6 |  |  |  |  |  |  | 
CC(C)(c1ccc(OCc2ocnc2S(C)(=O)=O)cc1)c1cc(Cl)c(OCCCl)c(C#N)c1 [Compound A28, 3-chloro-2-(2-chloroethoxy)-5-(2-(4-((4-(methylsulfonyl)oxazol-5-yl)methoxy)phenyl)propan-2-yl)benzonitrile] | 50.3 | 8430 | 2010 | 0.5 | 2.8 | 1685.1 | 0.68 | > 10 |  |  | 6.43 |  | 
CCS(=O)(=O)Nc1nc(COc2ccc(C(C)(C)c3cc(Cl)c(OCCCl)c(C#N)c3)cc2)co1 [Compound A126] | 86 | 24500 | 3110 | 1.3 | 4.7 | 4909.4 |  |  |  |  |  |  | 

Next, values leading:

bioavailability [1, 6] [%] | AUC(0-t) [1, 7] [ng·h/mL] | Cmax [1, 7] [ng/mL] | Tmax [1, 7] [h] | half-life [1, 7] [h] | AUC/D [1, 7] [kg·ng·h/mL/mg] | IC50 [2] [µM] | IC50 [3] [µM] | Cmin at 5 mg/kg PO [1] [nM] | Cmin at 5 mg/kg PO [4] [nM] | IC50 [5] [µM] | t½ [1, 7] [h] | F (%) ([1]; single PO dose 5 mg/kg, male CD-1 mice, oral availability) | SMILES
85.8 | 8310 | 1140 | 1 | 8.3 | 1661.9 | 0.85 | > 10 | 230 | 2780 | 4 |  |  | CC(C)(c1ccc(OCc2ocnc2S(C)(=O)=O)cc1)c1cc(Cl)c(OCCCl)c(Cl)c1 [Compound A13, 5-((4-(2-(3,5-dichloro-4-(2-chloroethoxy)phenyl)propan-2-yl)phenoxy)methyl)-4-(methylsulfonyl)oxazole]
33.6 | 30700 | 2670 | 2.2 | 8.1 | 6143.0 | 0.44 | > 10 | 680 | 8180 | 3.78 |  |  | CC(C)(c1ccc(OCc2ccnc(NS(C)(=O)=O)n2)cc1)c1cc(Cl)c(OCCCl)c(C#N)c1 [Compound A109, N-(4-((4-(2-(3-chloro-4-(2-chloroethoxy)-5-cyanophenyl)propan-2-yl)phenoxy)methyl)pyrimidin-2-yl)methanesulfonamide]
 |  |  |  |  |  | 3 | > 10 |  |  | 4 |  |  | CC(C)(c1ccc(OC[C@H](O)CNS(C)(=O)=O)cc1)c1cc(Cl)c(OC[C@H](O)CCl)c(Cl)c1 [X, reference compound]
 | 72700 | 6310 | 2.7 |  | 14542.3 | 1.16 | > 10 | 2420 | 29100 | 2.65 | 12.5 | 71.9 | CC(C)(c1ccc(OCc2ccnc(NS(C)(=O)=O)n2)cc1)c1cc(Cl)c(OCCCl)c(Cl)c1 [Compound A74, N-(4-((4-(2-(3,5-dichloro-4-(2-chloroethoxy)phenyl)propan-2-yl)phenoxy)methyl)pyrimidin-2-yl)methanesulfonamide]
86.4 | 12800 | 1270 | 3.3 | 4.9 | 2561.0 |  |  |  |  |  |  |  | CC(C)(c1ccc(OCc2coc(NS(C)(=O)=O)n2)cc1)c1cc(Cl)c(OCCCl)c(Cl)c1 [Compound A38, N-(4-((4-(2-(3,5-dichloro-4-(2-chloroethoxy)phenyl)propan-2-yl)phenoxy)methyl)oxazol-2-yl)methanesulfonamide]
